Values after ≈ are worked out from the molar mass of the structure shown. Non-standard residues stand in square brackets, D forms with d. Residues, ends and D or L forms follow the SMILES beside them. No end group written: not given here. rhodamine = not defined here

Series [1] relates to Candida albicans (ATCC 10231). Description: microbe, parasite or virus in culture. In kind it is cell-based. Conditions: for minimal inhibitory concentration (MIC): ATCC 10231, 24 h. As to the method: Candida albicans (ATCC© 10231^TM) was cultured in Sabouraud medium (Sigma-Aldrich) supplemented with tetracycline (10 μg/mL) and cefotaxime (10 μg/mL) at 37 °C for 24 h. Candida albicans (OD600nm = 0,001) were plated in 96-well plates and treated either with different concentrations of the peptides of interest, and/or with different concentrations of voriconazole (VCZ) (Sigma-Aldrich). As a positive control, cells were treated with 10 μg/mL VCZ. After 24 hours incubation, yeast growth was assessed by optical density OD600nm using a spectrophotometer (Multiscan EX). The MIC of the antifungal agents, defined as the lowest concentration of drug able to inhibit 100% of the growth of a pathogen was determined using a modified Gompertz model.

Series [2] has as its system Candida albicans (ATCC 10231). Description: Antifungal combination test D-Ctl + voriconazole (FIC index). It counts as cell-based. On the procedure:
Candida albicans (ATCC© 10231^TM) was cultured in Sabouraud medium (Sigma-Aldrich) supplemented with tetracycline (10 μg/mL) and cefotaxime (10 μg/mL) at 37 °C for 24 h. Candida albicans (OD600nm = 0,001) were plated in 96-well plates and treated either with different concentrations of the peptides of interest, and/or with different concentrations of voriconazole (VCZ) (Sigma-Aldrich). As a positive control, cells were treated with 10 μg/mL VCZ. After 24 hours incubation, yeast growth was assessed by optical density OD600nm using a spectrophotometer (Multiscan EX). The efficiency of the combination between D-Ctl and VCZ was determined by the calculation of the Fractional inhibitory concentration index (FICI) according to the following formula: FICI = FICD-Ctl + […] = (MICD-Ctl in combination/MICD-Ctl alone) + ([…] in combination/[…] alone) . According to EUCAST[38], the effect of the combination is synergistic if FICI ≤ 0,5, additive if 0,5 < FICI ≤ 1, indifferent if 1 < FICI < 2 and antagonistic if FICI ≥ 2.

A further series relates to Candida albicans. Description: Time-lapse video microscopy of Candida albicans with rhodamine-labelled peptides. In kind it is cell-based. The following applies: for entry into C. albicans: 10 × MIC, 30 min incubation at 37 °C, fluorescence microscopy. As to the method: Diluted precultures (1/1000) of Candida albicans were incubated for 1 hour at 37 °C without agitation in glass bottom μ-Dish^35mm,high (Ibidi) previously treated with poly-L-lysine. […] To perform time-lapse video microscopy, the peptides were removed and replaced by Sabouraud medium. Yeasts were then plated at 37 °C, 5% CO2, on a Nikon Eclipse Ti inverted microscope equipped with an Andor Zyla sCMOS camera and a 60X objective. To prevent evaporation, a layer of mineral oil (Sigma) was added on top of the media prior imaging. Images (fluorescence and phase contrast) were captured every 10 min for 20 hours using Nikon NIS-Elements AR software, and processed with ImageJ.

In series [3] the test system is proteases secreted by Candida albicans. Description: Peptide stability in the supernatant of Candida albicans (HPLC). It counts as in vitro ADME. Conditions: peptide 186 μg/mL = 100 μM in 100 μL filtered supernatant, 37 °C, 24 h; RP-HPLC C18, 214 nm; repeated three times. On the procedure:
The supernatant of Candida albicans was prepared as follows: a single colony of Candida albicans was resuspended in 5 mL of Sabouraud medium and incubated at 37 °C overnight. The culture was then centrifuged at 10000 g for 1 min and the supernatant was filtered using a 0.22 μm MillexH-GV (Merck Millipore). In order to check sterility, an aliquot of the supernatant was incubated at 37 °C for 48 h. The absence of growth was interpreted as a lack of viable microorganism.
100 μL of supernatant was then directly incubated or not with L-Ctl or D-Ctl (186 μg/mL = 100 μM) at 37 °C for 24 h. As a control, each peptide (186 μg/mL = 100 μM) as well as the combination ½ MICD-Ctl + ¼ MICVCZ were incubated in water (100 μL) at 37 °C for 24 h. Samples were then separated using a Dionex HPLC system (Ultimate 3000) on a Nucleosil reverse-phase 300–5C18-column (4.6 × 250 mm; particle size: 5 μm; porosity, 300 Å) (Macherey Nagel). Absorbance was monitored at 214 nm and the solvent system consisted of 0.1% (v/v) TFA in water (solvent A) and 0.09% (v/v) TFA in 70% (v/v) acetonitrile-water (solvent B). Elution was performed at a flow rate of 700 μL/min with a gradient of solvent B as indicated on the chromatograms. Each peak was manually collected.

With `C[C@@H](c1ncncc1F)[C@](O)(Cn1cncn1)c1ccc(F)cc1F` [VCZ, voriconazole], in series [1] (Candida albicans, ATCC10231, lowest concentration inhibiting 100% of C. albicans growth, Sabouraud medium, 24 h, OD600nm, average of at least three experiments, read-out: minimal inhibitory concentration (MIC)), the MIC came out at 0.07 µg/mL (≈ 0.2 µM). Also, in series [2] (MIC in combination / MIC alone), the “FIC (fractional inhibitory concentration) of the single agent in the combination” value came out at 0.5. For the same compound, in series [2] (with ½ MIC D-Ctl), the “fold decrease of VCZ concentration by adding D-Ctl” value is listed as 4. Moreover, the “concentration of VCZ in the combination (¼ MIC VCZ)” value in series [2] (with ½ MIC D-Ctl, kills 100% of C. albicans) was 0.018 µg/mL.

As to “Rho-D-Ctl: D-Ctl with a rhodamine moiety on the N-terminal end, used for video microscopy (rhodamine-[dR][dS][dM][dR][dL][dS][dF][dR][dA][dR]G[dY]G[dF][dR]; reading uncertain)”, the “entry into C. albicans” value in the series with Candida albicans was “able to enter”. In the series with Candida albicans (Rho-D-Ctl 10 × MIC (55 μg/mL), time-lapse video microscopy), the “effect on colonies totally invaded” value is “systematic arrest of fungal growth and ongoing cellular divisions”.

For `CSCC[C@H](NC(=O)[C@H](CO)NC(=O)[C@@H](N)CCCNC(=N)N)C(=O)N[C@@H](CCCNC(=N)N)C(=O)N[C@@H](CC(C)C)C(=O)N[C@@H](CO)C(=O)N[C@@H](Cc1ccccc1)C(=O)N[C@@H](CCCNC(=N)N)C(=O)N[C@@H](C)C(=O)N[C@@H](CCCNC(=N)N)C(=O)NCC(=O)N[C@@H](Cc1ccc(O)cc1)C(=O)NCC(=O)N[C@@H](Cc1ccccc1)C(=O)N[C@@H](CCCNC(=N)N)C(=O)O` [L-Ctl, Cateslytin] (H-RSMRLSFRARGYGFR-OH), the “minimal inhibitory concentration (MIC)” value in series [1] turned out to be 7.9 µg/mL (≈ 4.25 µM). Further, the “stability in the supernatant of Candida albicans” value in series [3] is reported as “the peak of L-Ctl disappeared”.

Consider “Rho-L-Ctl: L-Ctl with a rhodamine moiety on the N-terminal end, used for video microscopy (rhodamine-RSMRLSFRARGYGFR; reading uncertain)”, for which the “entry into C. albicans” value with Candida albicans is listed as “able to enter”.

Consider `CSCC[C@@H](NC(=O)[C@@H](CO)NC(=O)[C@H](N)CCCNC(=N)N)C(=O)N[C@H](CCCNC(=N)N)C(=O)N[C@H](CC(C)C)C(=O)N[C@H](CO)C(=O)N[C@H](Cc1ccccc1)C(=O)N[C@H](CCCNC(=N)N)C(=O)N[C@H](C)C(=O)N[C@H](CCCNC(=N)N)C(=O)NCC(=O)N[C@H](Cc1ccc(O)cc1)C(=O)NCC(=O)N[C@H](Cc1ccccc1)C(=O)N[C@H](CCCNC(=N)N)C(=O)O` [D-Ctl, D-Cateslytin] (H-[dR][dS][dM][dR][dL][dS][dF][dR][dA][dR]G[dY]G[dF][dR]-OH), for which, in series [1], the “minimal inhibitory concentration (MIC)” value was found to be 5.5 µg/mL (≈ 2.96 µM). In addition, the “stability in the supernatant of Candida albicans” value in series [3] is “still present”.
